Laboratory results: patent US12454521B2, “Targeted protein degradation” (C4 Therapeutics, Inc., priority 2018, dated 2025)
Where a name gives a salt, the structure may show the parent alone.

Target: CRBN-DDB1 (Homo sapiens, UniProt Q96SW2)
Assay: CRBN-DDB1 fluorescence polarization (FP) binding assay
Conditions: displacement of Thalidomide-Alexa Fluor or Pomalidomide-fluorescein probe; 400 nM CRBN-DDB1, 5 nM probe, 0.05% pluronic acid, 60 min room temperature; read-out: FP binding to CRBN_DDB1.3 0.05% PA
Experimental: The measurement of the ability of representative Degrons to bind to CRBN-DDB1 was carried out using an established sensitive and quantitative in vitro fluorescence polarization (FP) based binding assay. (See, I. J. Enyedy et al, J. Med. Chem., 44: […] [2001]). Degrons were dispensed from serially diluted DMSO stock into black 384-well compatible fluorescence polarization plates using an Echo acoustic dispenser. Binding to CRBN-DDB1 was measured by displacement of either a (-)-Thalidomide- Alexa Fluor® or Pomalidomide-fluorescein conjugated probe dye. A 20 μL mixture containing 400 nM CRBN-DDB1 and 5 nM probe dye in 50 mM Hepes, pH 7.4, 200mM NaCl, 1% DMSO and 0.05% pluronic acid-127 acid was added to wells containing Degron and incubated at room temperature for 60 min. Matching control wells excluding CRBN-DDB1 were used to correct for background fluorescence. Plates were read on an Envision plate reader with appropriate FP filter sets. The corrected S (perpendicular) and P (parallel) values were used to calculate fluorescence polarization (FP) with the following equation: FP =1000*(S-G*P)/(S+G*P). The fractional amount of bound probe (FB) to CRBN-DDB1 as a function of Degron concentration was fitted according to Wang; FEBS Letters 360, (1995), 111-114 to obtain fits for parameter offsets and binding constant (KA) of Degron.

Sequence of CRBN-DDB1 (Q96SW2 whole entry): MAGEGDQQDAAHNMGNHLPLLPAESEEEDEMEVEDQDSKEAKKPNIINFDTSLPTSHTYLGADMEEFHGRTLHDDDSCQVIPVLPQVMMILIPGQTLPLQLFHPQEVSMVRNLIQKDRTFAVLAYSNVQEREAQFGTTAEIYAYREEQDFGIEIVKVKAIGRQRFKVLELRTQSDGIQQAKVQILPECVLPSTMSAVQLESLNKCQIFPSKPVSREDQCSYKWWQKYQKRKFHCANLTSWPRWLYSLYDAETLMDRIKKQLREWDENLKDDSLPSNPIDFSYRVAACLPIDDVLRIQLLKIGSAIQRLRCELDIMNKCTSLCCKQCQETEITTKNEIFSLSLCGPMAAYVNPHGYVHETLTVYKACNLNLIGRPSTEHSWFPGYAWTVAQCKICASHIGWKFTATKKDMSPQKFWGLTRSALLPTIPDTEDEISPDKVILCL
Sequence of CRBN-DDB1 (Q16531 whole entry partner): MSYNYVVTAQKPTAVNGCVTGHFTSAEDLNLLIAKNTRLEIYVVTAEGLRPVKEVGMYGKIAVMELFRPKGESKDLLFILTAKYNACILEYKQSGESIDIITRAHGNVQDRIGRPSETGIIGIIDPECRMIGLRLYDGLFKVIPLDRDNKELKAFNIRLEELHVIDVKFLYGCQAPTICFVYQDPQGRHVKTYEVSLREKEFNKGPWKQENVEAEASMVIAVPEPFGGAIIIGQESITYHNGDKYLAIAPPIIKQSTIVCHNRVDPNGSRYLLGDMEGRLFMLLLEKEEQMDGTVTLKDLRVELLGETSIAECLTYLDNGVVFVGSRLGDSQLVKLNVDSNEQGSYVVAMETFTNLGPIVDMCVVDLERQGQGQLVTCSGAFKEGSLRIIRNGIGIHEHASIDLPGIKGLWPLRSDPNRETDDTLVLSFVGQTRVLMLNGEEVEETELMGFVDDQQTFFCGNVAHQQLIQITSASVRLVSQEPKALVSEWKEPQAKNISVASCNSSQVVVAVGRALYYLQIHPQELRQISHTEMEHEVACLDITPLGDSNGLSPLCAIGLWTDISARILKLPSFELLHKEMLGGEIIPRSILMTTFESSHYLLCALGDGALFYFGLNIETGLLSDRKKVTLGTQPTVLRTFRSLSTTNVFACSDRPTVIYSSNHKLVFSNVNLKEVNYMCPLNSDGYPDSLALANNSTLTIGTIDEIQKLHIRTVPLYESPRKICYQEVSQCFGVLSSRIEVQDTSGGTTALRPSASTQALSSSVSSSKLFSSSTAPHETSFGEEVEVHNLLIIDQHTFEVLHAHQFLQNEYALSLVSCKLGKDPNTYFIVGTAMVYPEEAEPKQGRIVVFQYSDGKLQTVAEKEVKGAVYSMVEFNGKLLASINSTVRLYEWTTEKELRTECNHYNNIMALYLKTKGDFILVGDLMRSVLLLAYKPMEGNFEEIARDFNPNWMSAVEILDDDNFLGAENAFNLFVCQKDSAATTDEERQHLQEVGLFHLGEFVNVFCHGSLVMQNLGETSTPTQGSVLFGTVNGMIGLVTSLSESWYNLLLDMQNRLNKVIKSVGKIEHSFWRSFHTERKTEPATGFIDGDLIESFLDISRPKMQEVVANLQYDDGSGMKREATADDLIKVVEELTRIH

| Kd [µM] | SMILES |
| --- | --- |
| < 100 | O=C1CCN(c2ccc(C3CCNCC3)cc2)C(=O)N1 [Compound 11, 1-[4-(4-piperidyl)phenyl]hexahydropyrimidine-2,4-dione; hydrochloride] |
| < 100 | O=C1CCN(c2cccc(C3CCNCC3)c2)C(=O)N1 [Compound 12, 1-(3-Piperidin-4-yl-phenyl)-dihydro-pyrimidine-2,4-dione hydrochloride] |
| < 100 | O=C1CCN(c2ccc(N3CCNCC3)cc2)C(=O)N1 [Compound 10, 1-(4-Piperazin-1-yl-phenyl)-dihydro-pyrimidine-2,4-dione hydrochloride] |
| < 30 | O=C1CCN(Cc2ccc(C3CCNCC3)cc2)C(=O)N1 [Compound 14, 1-(4-(Piperidin-4-yl)benzyl)dihydropyrimidine-2,4(1H,311)-dione TFA] |
| < 100 | O=C1CCN(c2cnn(C3CCNCC3)c2)C(=O)N1 [Compound 8, 1-[1-(4-piperidyl)pyrazol-4-yl]hexahydropyrimidine-2,4-dione] |

Second part, the compound before the results:

| SMILES | Kd [µM] |
| --- | --- |
| O=C1CCN(c2ccc(N3CCNCC3)nc2)C(=O)N1 [Compound 1, 1-(6-(Piperazin-1-yl)pyridin-3-yl)dihydropyrimidine-2,4(1H,3H)-dione Hydrochloride] | < 30 |
| O=C1CCN(c2ccc(C3CCNCC3)c(=O)[nH]2)C(=O)N1 [Compound 5, 1-(6-Oxo-5-(piperidin-4-yl)-1,6-dihydropyridin-2-yl)dihydropyrimidine-2,4(1H,3H)-dione Hydrochloride] | < 100 |
| O=C1CCN(c2ccc(C3CCNCC3)[nH]c2=O)C(=O)N1 [Compound 7, 1-(2-Oxo-6-(piperidin-4-yl)-1,2-dihydropyridin-3-yl)dihydropyrimidine-2,4(1H,3H)-dione] | < 30 |
| O=C(O)CCc1ccc(N2CCC(N3CCC(=O)NC3=O)CC2)cc1 [Compound 6, 3-[4-[4-(2,4-dioxohexahydropyrimidin-1-yl)-1-piperidyl]phenyl]propanoic acid] | < 50 |
| Cn1nc(N2CCC(=O)NC2=O)c2ccc(Br)cc21 [Compound 2, 1-(6-Bromo-1-methyl-1H-indazol-3-yl)dihydropyrimidine-2,4(1H,3H)-dione] | < 50 |
